One compound from patent US20240148757A1, “USE OF DIHYDROOROTATE DEHYDROGENASE (DHODH) INHIBITORS TO TARGET FERROPTOSIS IN CANCER THERAPY” (BOARD OF REGENTS, THE UNIVERSITY OF TEXAS SYSTEM, priority 2021, published 2024) can be followed below.

For test [1], the system named is GPX4 knockdown HT-1080 cells with DHODH deletion. Briefly: Lipid peroxidation and ferroptosis in DHODH KO, GPX4 knockdown HT-1080 cells. Type of test: cell-based, human. How it is done:
Knockout of DHODH, ACSL4 and COQ2 in human cell lines was performed using single guide RNAs (sgRNAs) and doxycycline (DOX)-inducible CRISPR-Cas9 expression system as described in our recent publication (Lee, H., et al., Nature cell biology 22, 225-234 (2020)). sgRNAs were cloned into the lentiviral lentiGuide vector. LentiGuide clones were transfected into HEK293T cells with psPAX2 packaging plasmid and pMD2.G expressing plasmid. Cells were infected with lentivirus with 0.8 μg/ml polybrene, selected with puromycin (1 μg/ml, InvivoGen), blasticidin (2 μg/ml, InvivoGen) or hygromycin B (2 μg/ml, InvivoGen) for 3 days and then single cells were sorted into 96-well plates. […]
Cells were seeded on 12-well plates and incubated overnight. […] Lipid peroxidation was assessed using the flow cytometer BD Accuri C6 with a 488 nm laser on an FL1 detector. A minimum of 10,000 single cells were analyzed per well.
Cell death was measured by propidium iodide (Roche) staining using a flow cytometer, as previously described (Dai, F., et al., Proc Natl Acad Sci USA 114, 3192-3197 (2017); Zhang, Y., et al., Cancer Res 80, 2243-2256 (2020)). […] A minimum of 10,000 single cells were analyzed per well and all experiments were carried out at least in triplicate.

Test [2] has as its system DHODH KO HT-1080 cells. Briefly: Cell viability / cell death (ferroptosis) in DHODH KO HT-1080 cells. Type of test: cell-based, human. The note with it: DHODH KO; pretreatment 10 μM, 24 hours. Here is the method:
Knockout of DHODH, ACSL4 and COQ2 in human cell lines was performed using single guide RNAs (sgRNAs) and doxycycline (DOX)-inducible CRISPR-Cas9 expression system as described in our recent publication (Lee, H., et al., Nature cell biology 22, 225-234 (2020)). sgRNAs were cloned into the lentiviral lentiGuide vector. LentiGuide clones were transfected into HEK293T cells with psPAX2 packaging plasmid and pMD2.G expressing plasmid. Cells were infected with lentivirus with 0.8 μg/ml polybrene, selected with puromycin (1 μg/ml, InvivoGen), blasticidin (2 μg/ml, InvivoGen) or hygromycin B (2 μg/ml, InvivoGen) for 3 days and then single cells were sorted into 96-well plates. Single cells were maintained in DMEM with 10% (v/v) FBS and 1% (v/v) penicillin/streptomycin at 37° C. in an incubator with 20% O2 and 5% CO2 for 3-4 weeks and each colony was verified by western blot to confirm the target gene deletion. To generate cell lines with DOX-inducible CRISPR-Cas9-mediated gene deletion, cells were infected with lentivirus, selected with puromycin (1 μg/ml, InvivoGen), blasticidin (2 μg/ml, InvivoGen) or hygromycin B (2 μg/ml, InvivoGen) for 2 days and then single cells were sorted into 96-well plates. Once cell lines were established, 1 μg/ml of DOX (Sigma-Aldrich) was added to the media to induce target gene deletion for 48 hours after selection; then cells were cultured in DOX-free media for subsequent analyses.
Viable cells were measured using Cell Counting Kit-8 (CCK-8, Dojindo) as previously described (Koppula, P., Zhang, Y., Shi, J., Li, W. & Gan, B, J Biol Chem 292, 14240-14249 (2017); Liu, X. & Gan, B, Cell Cycle 15, 3471-3481 (2016)). Briefly, cells were seeded onto 96-well plates at a density of 2×10^4 per well. The next day, cells were treated with GPX4 or DHODH inhibitors for 4 hours. Subsequently, cells exposed to 10 μl CCK-8 reagent (100 μl medium per well) for 1 hour at 37° C., 5% CO2 in an incubator. The absorbance at a wavelength of 450 nm was determined using a FLUOstar Omega microplate reader (BMG Labtech).
Cell death was measured by propidium iodide (Roche) staining using a flow cytometer, as previously described (Dai, F., et al., Proc Natl Acad Sci USA 114, 3192-3197 (2017); Zhang, Y., et al., Cancer Res 80, 2243-2256 (2020)). For propidium iodide-staining, cells were seeded at a density of 50% confluence into 12-well plates. The next day, cells were treated with different reagents. To measure cell death, the cells were collected (including floating dead cells), stained with 5 μg/ml propidium iodide and the percentage of the propidium iodide-positive dead cell population was analyzed using the flow cytometer BD Accuri C6 (BD Biosciences) and an FL2 detector. A minimum of 10,000 single cells were analyzed per well and all experiments were carried out at least in triplicate.

Test [3] relates to GPX4^low NCI-H226 xenografts. In words: NCI-H226 xenograft model. Type of test: in vivo, athymic nude mice. As to conditions: liproxstatin-1 10 mg/kg intraperitoneally daily. Here is the method:
All the xenograft experiments were performed in accordance with a protocol approved by the Institutional Animal Care and Use Committee and Institutional Review Board at The University of Texas MD Anderson Cancer Center. The study is compliant with all relevant ethical regulations regarding animal research. Female 4- to 6-week-old athymic nude mice (Foxn1^nu/Foxn1^nu) were purchased from the Experimental Radiation Oncology Breeding Core Facility at MD Anderson Cancer Center and housed in the Animal Care Facility at the Department of Veterinary Medicine and Surgery at MD Anderson. Cancer cell lines were suspended and counted in cold phosphate-buffered saline (PBS), and 5×10^6 HT-1080 or 1×10^7 NCI-H226 cells were injected into mice subcutaneously. When the tumor reached 50-100 mm^3, the mice were assigned randomly into different treatment groups. Brequinar or sulfasalazine was dissolved in dimethyl sulfoxide (DMSO) and diluted in PBS. Brequinar was intraperitoneally injected into mice at a dose of 30 mg/kg every three days. Sulfasalazine was intraperitoneally injected daily at a dose of 100 mg/kg. Liproxstatin-1 diluted in PBS was intraperitoneally injected daily at a dose of 10 mg/kg. […] The tumor volume was measured every 3 days until the endpoint and calculated according to the equation volume=length×width^2×½.

The structures appear in SMILES notation.

On to `Clc1cccc(CN=C2Nc3ccccc3NC23CCNCC3)c1` [liproxstatin-1], for which the “rescue of lipid peroxidation and ferroptosis” value in test [1] is “could be rescued”. The “protection against GPX4 inhibition (RSL3 or ML162)-induced ferroptosis” value in test [2] was “rescued”. In addition, in test [3], the “restoration of brequinar-suppressed tumor growth” value is on record as “could be restored”.
